Where “and” joins values, the source holds several entries; their conditions need not be identical. Equal values may be shown once.
Key:
[1] = system: C. acnes strain C3; assay: Minimum inhibitory concentration (MIC) of cosmetic excipients, strain C3; format: cell-based, Cutibacterium acnes; conditions: % w/vol; anaerobic incubation 3 days at 37° C.; growth scored visually
Experimental: (§1) In microbiology, the MIC is the lowest concentration of a chemical which prevents visible growth of bacterium. The resulted MIC value depends both on the microorganism and the test compound. The MIC is determined by preparing concentrations series of the test compound in vitro, incubating the solutions with the separate batches of cultured bacteria, and measuring the results using agar dilution or broth microdilution. For the experiments with C. acnes strains C3 and K8, media comprising yeast extract soy peptone and dextrose were used. The MIC is determined by turbidity.
(§2) A total of 125 cosmetic excipients were tested for their compatibility with C. acnes strains C3 and K8. Hydrophilic compounds were tested in a 96-well plate liquid broth format, poorly soluble compounds were pre-dissolved in DMSO before dilution in liquid broth and hydrophobic or solid compounds were tested in an agar well diffusion test assay. The different dilutions of the test excipients in media were prepared in Falcon tubes and then distributed in a deep well plate using a multistepper. Each well received 1.2 ml and was subsequently inoculated with 120 μl of C. acnes bacteria suspension (strain C3 and K8). From the deep well plate 200 μl were transferred in each well of a clear 96 well replicate plate. The leftover was discarded. The plates were then incubated anaerobically for 3 days at 37° C. Following incubation, the test plates were visually examined and wells were scored for growth or complete growth inhibition to define the minimum inhibitory concentration.
(§3) These excipients are listed in the below table with their compatibility values for C. acnes strains C3 and K8. The compatibility values represent the MIC value of the listed ingredients with the tested C. acnes strains. At this concentration [% w/vol] the tested compound starts interfering with the growth of the tested strains. The compounds can be used in formulations at concentrations below this concentration.

[2] = system: C. acnes strain K8; assay: Minimum inhibitory concentration (MIC) of cosmetic excipients, strain K8; format: cell-based, Cutibacterium acnes; conditions: % w/vol; anaerobic incubation 3 days at 37° C.; growth scored visually
Experimental: as §1, §2, §3

Citric acid/citrate
COM[…] C3 (MIC) [1]: 1.30% | COM[…] C3 (MIC) [2]: 1.30%

tocopherol
COMPATABILITY VALUE C3 (MIC) [1]: 1.50% and 10.00% | COMPATABILITY VALUE C3 (MIC) [2]: 1.50% and 10.00%

CCO [ethanol]
COMPATABILITY VALUE C3 (MIC) [2]: 3.75%

CCCCCCC(O)CO (stereo not shown) [caprylyl glycol]
COMPATABILITY VALUE C3 (MIC) [1]: 0.18% | COMPATABILITY VALUE C3 (MIC) [2]: 0.18%

CC(=O)Oc1c(C)c(C)c2c(c1C)CCC(C)(CCC[C@H](C)CCC[C@H](C)CCCC(C)C)O2 (stereo partly shown) [tocopheryl acetate]
COMPATABILITY VALUE C3 (MIC) [1]: 1.00% | COMPATABILITY VALUE C3 (MIC) [2]: 1.00%

CC(CO)CO [methylpropanediol]
COMPATABILITY VALUE C3 (MIC) [1]: 4.00% | COMPATABILITY VALUE C3 (MIC) [2]: 4.00%

O=C(O)CC(O)(CC(=O)O)C(=O)O [citric acid]
COMPATABILITY VALUE C3 (MIC) [1]: 0.33% | COMPATABILITY VALUE C3 (MIC) [2]: 0.08%
